In US9981975B2, “Pyrrolotriazine compounds as tam inhibitors” (Incyte Corporation, priority 2016, dated 2018):

Columns and labels:
Type in all cases: biochemical
c-Mer = c-Mer (Homo sapiens (Human), UniProt Q12866); assay: TAM Enzymatic Assay (HTRF), Mer; details: 60 min, room temperature
Experimental: The kinase assay buffer contained 50 mM HEPES, pH7.5, 10 mM MgCl2, 1 mM EGTA, 0.01% NP-40 and 2 mM DTT. 0.1 ul test compounds dissolved in DMSO were transferred from compound plates to white 384-well assay plates (Greiner […] plates). […] 4 ul enzyme solution (or assay buffer for the enzyme blank) was added to the appropriate wells in each plate, and then 4 ul/well substrate solution was added to initiate the reaction. The plate was protected from light and incubated at room temperature for 60 min. […] The plate was incubated for 1 h at room temperature, and HTRF (homogenous time resolved fluorescence) signal was measured on a PHERAstar FS plate reader (BMG labtech). Percentage of inhibition was calculated for each concentration and IC50 value was generated from curve fitting with GraphPad Prism software.

phosphor-Axl = phosphor-Axl (Homo sapiens (Human), UniProt P30530); assay: TAM Enzymatic Assay (HTRF), Axl; details: recombinant autophosphorylated Axl, 60 min, room temperature
Tyro3 = Tyro3 (Homo sapiens (Human), UniProt Q06418); assay: TAM Enzymatic Assay (HTRF), Tyro3; details: Tyro3, 60 min, room temperature
Method in brief: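 HTRF kinase assay in 50 mM HEPES pH 7.5, 10 mM MgCl2, 1 mM EGTA, 0.01% NP-40, 2 mM DTT; compound in DMSO pre-dispensed, enzyme added, reaction started with substrate, 60 min at room temperature in the dark.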

Sequence of c-Mer (Q12866 21-999): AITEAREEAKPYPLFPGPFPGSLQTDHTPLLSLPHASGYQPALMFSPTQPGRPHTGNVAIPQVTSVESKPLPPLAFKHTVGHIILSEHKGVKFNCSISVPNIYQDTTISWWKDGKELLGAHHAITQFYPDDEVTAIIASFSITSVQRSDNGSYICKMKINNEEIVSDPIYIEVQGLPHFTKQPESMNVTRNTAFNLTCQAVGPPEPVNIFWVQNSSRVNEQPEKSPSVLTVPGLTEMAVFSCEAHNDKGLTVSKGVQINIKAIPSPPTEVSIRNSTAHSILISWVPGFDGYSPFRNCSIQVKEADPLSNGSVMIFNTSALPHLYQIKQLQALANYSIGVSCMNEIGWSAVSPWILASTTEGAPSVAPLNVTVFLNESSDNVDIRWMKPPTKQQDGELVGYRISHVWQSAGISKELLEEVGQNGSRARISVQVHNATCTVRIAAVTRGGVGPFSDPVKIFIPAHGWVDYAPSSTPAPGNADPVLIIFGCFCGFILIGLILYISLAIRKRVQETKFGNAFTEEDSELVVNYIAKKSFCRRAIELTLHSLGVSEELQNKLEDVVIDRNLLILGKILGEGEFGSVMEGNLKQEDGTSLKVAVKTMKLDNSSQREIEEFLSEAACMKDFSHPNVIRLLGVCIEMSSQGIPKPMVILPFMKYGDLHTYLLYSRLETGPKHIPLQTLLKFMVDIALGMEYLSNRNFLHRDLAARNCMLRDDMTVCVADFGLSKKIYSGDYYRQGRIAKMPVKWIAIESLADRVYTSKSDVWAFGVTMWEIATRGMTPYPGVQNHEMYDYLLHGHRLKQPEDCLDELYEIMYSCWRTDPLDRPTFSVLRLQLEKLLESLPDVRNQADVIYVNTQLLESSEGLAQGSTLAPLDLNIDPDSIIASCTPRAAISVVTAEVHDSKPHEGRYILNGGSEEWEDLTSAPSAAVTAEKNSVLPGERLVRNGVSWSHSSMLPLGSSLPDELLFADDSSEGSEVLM
Sequence of phosphor-Axl (P30530 26-894): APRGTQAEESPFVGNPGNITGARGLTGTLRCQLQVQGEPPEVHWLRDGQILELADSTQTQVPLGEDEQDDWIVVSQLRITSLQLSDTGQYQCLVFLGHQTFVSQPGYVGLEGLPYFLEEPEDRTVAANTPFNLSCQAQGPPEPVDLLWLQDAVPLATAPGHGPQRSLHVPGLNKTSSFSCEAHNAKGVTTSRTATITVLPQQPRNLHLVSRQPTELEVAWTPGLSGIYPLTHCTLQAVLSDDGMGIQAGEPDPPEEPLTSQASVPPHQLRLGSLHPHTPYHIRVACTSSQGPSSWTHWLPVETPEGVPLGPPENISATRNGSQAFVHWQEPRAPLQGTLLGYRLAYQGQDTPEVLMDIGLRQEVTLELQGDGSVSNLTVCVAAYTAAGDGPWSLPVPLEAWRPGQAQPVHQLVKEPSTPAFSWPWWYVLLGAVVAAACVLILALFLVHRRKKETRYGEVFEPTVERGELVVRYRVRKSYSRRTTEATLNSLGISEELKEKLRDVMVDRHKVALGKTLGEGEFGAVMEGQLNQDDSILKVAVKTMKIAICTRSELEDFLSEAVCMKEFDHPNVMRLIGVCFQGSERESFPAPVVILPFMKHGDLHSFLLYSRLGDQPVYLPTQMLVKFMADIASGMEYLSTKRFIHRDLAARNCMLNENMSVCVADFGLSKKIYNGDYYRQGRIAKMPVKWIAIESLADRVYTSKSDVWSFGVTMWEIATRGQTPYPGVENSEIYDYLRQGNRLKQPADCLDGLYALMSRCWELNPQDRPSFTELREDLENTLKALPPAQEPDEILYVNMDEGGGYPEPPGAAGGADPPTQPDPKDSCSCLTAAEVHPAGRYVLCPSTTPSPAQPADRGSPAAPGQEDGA
Sequence of Tyro3 (Q06418 41-890): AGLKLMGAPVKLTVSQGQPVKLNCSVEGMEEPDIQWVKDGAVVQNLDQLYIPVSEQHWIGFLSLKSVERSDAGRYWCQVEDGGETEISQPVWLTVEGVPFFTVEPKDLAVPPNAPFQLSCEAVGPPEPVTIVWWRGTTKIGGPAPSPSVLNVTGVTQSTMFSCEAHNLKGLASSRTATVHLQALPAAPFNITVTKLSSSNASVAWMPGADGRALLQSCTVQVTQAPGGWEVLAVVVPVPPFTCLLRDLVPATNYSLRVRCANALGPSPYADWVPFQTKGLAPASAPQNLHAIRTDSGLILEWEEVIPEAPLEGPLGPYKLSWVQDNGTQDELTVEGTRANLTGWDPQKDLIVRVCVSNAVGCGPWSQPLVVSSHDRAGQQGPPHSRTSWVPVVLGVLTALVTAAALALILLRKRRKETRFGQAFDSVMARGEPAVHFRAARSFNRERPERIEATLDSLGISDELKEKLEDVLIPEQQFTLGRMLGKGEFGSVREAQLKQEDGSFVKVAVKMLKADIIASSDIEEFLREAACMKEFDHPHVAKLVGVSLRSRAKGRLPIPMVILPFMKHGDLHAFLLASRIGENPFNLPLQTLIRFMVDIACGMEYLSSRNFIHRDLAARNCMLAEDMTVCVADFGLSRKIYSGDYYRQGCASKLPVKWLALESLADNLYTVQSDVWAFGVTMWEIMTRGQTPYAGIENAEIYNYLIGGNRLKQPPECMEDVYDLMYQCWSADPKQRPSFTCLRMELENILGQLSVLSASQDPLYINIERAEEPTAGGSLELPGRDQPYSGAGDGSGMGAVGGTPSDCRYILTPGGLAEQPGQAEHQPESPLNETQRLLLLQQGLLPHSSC

IC50 (c-Mer) [nM]	IC50 (phosphor-Axl) [nM]	IC50 (Tyro3) [nM]	Structure (SMILES)
> 100	> 100	> 100	CCc1cc(-c2ccc(NC(=O)c3cccn([C@H](CC)CO)c3=O)cc2)c2c(N)ncnn12 [Example 4, N-[4-(4-Amino-7-ethylpyrrolo[2,1-f][1,2,4]triazin-5-yl)phenyl]-1-[(1R)-1-(hydroxymethyl)propyl]-2-oxo-1,2-dihydropyridine-3-carboxamide]
> 100	> 100	> 100	CCc1cc(-c2ccc(NC(=O)c3cccn([C@H](C)CO)c3=O)cc2)c2c(N)ncnn12 [Example 3, N-[4-(4-Amino-7-ethylpyrrolo[2,1-f][1,2,4]triazin-5-yl)phenyl]-1-[(1R)-2-hydroxy-1-methylethyl]-2-oxo-1,2-dihydropyridine-3-carboxamide]
≤ 5	≤ 5	10 to 100	Nc1ncnn2c(C3CCN(CCO)CC3)cc(-c3ccc(NC(=O)c4cccn(-c5ccccc5)c4=O)cc3)c12 [Example 52, N-(4-{4-Amino-7-[1-(2-hydroxyethyl)piperidin-4-yl]pyrrolo[2,1-f][1,2,4]triazin-5-yl}phenyl)-2-oxo-1-phenyl-1,2-dihydropyridine-3-carboxamide]
≤ 5	≤ 5	10 to 100	Cc1c(CC#N)cc(C(=O)Nc2ccc(-c3cc(C4CCN(C(=O)C(C)C)CC4)n4ncnc(N)c34)cc2)c(=O)n1-c1cncc(F)c1 [Example 102, N-(4-(4-Amino-7-(1-isobutyrylpiperidin-4-yl)pyrrolo[2,1-f][1,2,4]triazin-5-yl)phenyl)-5-(cyanomethyl)-5′-fluoro-6-methyl-2-oxo-2H-[1,3′-bipyridine]-3-carboxamide]
≤ 5	≤ 5	10 to 100	CC(C)C(=O)N1CCC(c2cc(-c3ccc(NC(=O)c4cn(C(C)C)c(=O)n(-c5ccccc5)c4=O)cc3)c3c(N)ncnn23)CC1 [Example 63, N-(4-(4-Amino-7-(1-isobutyrylpiperidin-4-yl)pyrrolo[1,2-f][1,2,4]triazin-5-yl)phenyl)-1-isopropyl-2,4-dioxo-3-phenyl-1,2,3,4-tetrahydropyrimidine-5-carboxamide]

The next lines start with the compound.

Structure (SMILES)	IC50 (c-Mer) [nM]	IC50 (phosphor-Axl) [nM]	IC50 (Tyro3) [nM]
CC(=O)N1CCC(c2cc(-c3ccc(NC(=O)c4cccn(-c5ccccc5)c4=O)cc3F)c3c(N)ncnn23)CC1 [Example 26, N-{4-[7-(1-Acetylpiperidin-4-yl)-4-aminopyrrolo[2,1-f][1,2,4]triazin-5-yl]-3-fluorophenyl}-2-oxo-1-phenyl-1,2-dihydropyridine-3-carboxamide]	≤ 5	≤ 5	10 to 100
Cc1c(-c2cncc(F)c2)c(=O)c(C(=O)Nc2ccc(-c3cc(C4CCN(C(=O)C(C)C)CC4)n4ncnc(N)c34)cc2)cn1C(C)C [Example 98, N-(4-(4-Amino-7-(1-isobutyrylpiperidin-4-yl)pyrrolo[2,1-f][1,2,4]triazin-5-yl)phenyl)-5′-fluoro-1-isopropyl-2-methyl-4-oxo-1,4-dihydro-[3,3′-bipyridine]-5-carboxamide]	≤ 5	≤ 5	10 to 100
Cc1c(-c2ccn(C)n2)cc(C(=O)Nc2ccc(-c3cc(C4CCN(C(=O)C(C)C)CC4)n4ncnc(N)c34)cc2)c(=O)n1-c1ccccn1 [Example 125, N-(4-(4-Amino-7-(1-isobutyrylpiperidin-4-yl)pyrrolo[2,1-f][1,2,4]triazin-5-yl)phenyl)-6-methyl-5-(1-methyl-1H-pyrazol-3-yl)-2-oxo-2H-[1,2′-bipyridine]-3-carboxamide]	≤ 5	≤ 5	> 100
N#C[C@H]1CC[C@@H](c2cc(-c3ccc(NC(=O)c4cccn(-c5ccccc5)c4=O)cc3F)c3c(N)ncnn32)CC1 [Example 30, N-{4-[4-Amino-7-(cis-4-cyanocyclohexyl)pyrrolo[2,1-f][1,2,4]triazin-5-yl]-3-fluorophenyl}-2-oxo-1-phenyl-1,2-dihydropyridine-3-carboxamide]	≤ 5	≤ 5	10 to 100
CN(C)C(=O)N1CCC(c2cc(-c3ccc(NC(=O)c4cccn(-c5ccc(F)cc5)c4=O)cc3)c3c(N)ncnn23)CC1 [Example 45, N-[4-(4-Amino-7-{1-[(dimethylamino)carbonyl]piperidin-4-yl}pyrrolo[2,1-f][1,2,4]triazin-5-yl)phenyl]-1-(4-fluorophenyl)-2-oxo-1,2-dihydropyridine-3-carboxamide]	≤ 5	≤ 5	10 to 100
CC(C)C(=O)N1CCC(c2cc(-c3ccc(NC(=O)c4nn(C(C)C)c(=O)n(-c5ccccc5)c4=O)cc3)c3c(N)ncnn23)CC1 [Example 96, N-(4-(4-Amino-7-(1-isobutyrylpiperidin-4-yl)pyrrolo[1,2-f][1,2,4]triazin-5-yl)phenyl)-2-isopropyl-3,5-dioxo-4-phenyl-2,3,4,5-tetrahydro-1,2,4-triazine-6-carboxamide]	≤ 5	≤ 5	10 to 100
CC(C)n1cc(C(=O)Nc2ccc(-c3cc(C4CCN(CC(=O)N(C)C)CC4)n4ncnc(N)c34)cc2)c(=O)n(-c2ccccc2)c1=O [Example 81, N-(4-(4-Amino-7-(1-(2-(dimethylamino)-2-oxoethyl)piperidin-4-yl)pyrrolo[1,2-f][1,2,4]triazin-5-yl)phenyl)-1-isopropyl-2,4-dioxo-3-phenyl-1,2,3,4-tetrahydropyrimidine-5-carboxamide]	≤ 5	≤ 5	10 to 100
CC(=O)N1CCC(c2cc(-c3ccc(NC(=O)c4cccn(-c5ccc(F)cc5)c4=O)cc3F)c3c(N)ncnn23)CC1 [Example 27, N-{4-[7-(1-Acetylpiperidin-4-yl)-4-aminopyrrolo[2,1-f][1,2,4]triazin-5-yl]-3-fluorophenyl}-1-(4-fluorophenyl)-2-oxo-1,2-dihydropyridine-3-carboxamide]	≤ 5	≤ 5	10 to 100
Cc1c(-c2cccnc2)c(=O)c(C(=O)Nc2ccc(-c3cc(C4CCN(C(=O)C(C)C)CC4)n4ncnc(N)c34)cc2)cn1C1CC1 [Example 147, N-(4-(4-Amino-7-(1-isobutyrylpiperidin-4-yl)pyrrolo[1,2-f][1,2,4]triazin-5-yl)phenyl)-1-cyclopropyl-6-methyl-4-oxo-5-(pyridin-3-yl)-1,4-dihydropyridine-3-carboxamide]	≤ 5	≤ 5	> 100
Cc1c(-c2ccccn2)c(=O)c(C(=O)Nc2ccc(-c3cc(C4CCN(C(=O)C(C)C)CC4)n4ncnc(N)c34)cc2)cn1C1CC1 [Example 141, N-(4-(4-Amino-7-(1-isobutyrylpiperidin-4-yl)pyrrolo[2,1-f][1,2,4]triazin-5-yl)phenyl)-1′-cyclopropyl-2′-methyl-4′-oxo-1′,4′-dihydro-[2,3′-bipyridine]-5′-carboxamide]	≤ 5	≤ 5	> 100
CC(C)n1cc(C(=O)Nc2ccc(-c3cc(C4CCN(C(=O)N(C)C)CC4)n4ncnc(N)c34)cc2)c(=O)n(-c2ccc(F)cc2)c1=O [Example 65, N-(4-(4-Amino-7-(1-(dimethylcarbamoyl)piperidin-4-yl)pyrrolo[1,2-f][1,2,4]triazin-5-yl)phenyl)-3-(4-fluorophenyl)-1-isopropyl-2,4-dioxo-1,2,3,4-tetrahydropyrimidine-5-carboxamide]	≤ 5	≤ 5	10 to 100
